Laboratory results published in publication PMC8234031, “Modular Assembly of Phosphite Dehydrogenase and Phenylacetone Monooxygenase for Tuning Cofactor Regeneration” (Biomolecules, 2021).

Biological target: T1, PAMOI (RIDD-tagged PAMO) (Thermobifida fusca, UniProt Q47PU3)
T1 construct: N-terminal 6xHis, C-terminal (GGGGS)x3 linker and 44-residue RIDD tag, kept; E. coli; 70 kDa; homodimer through the RIDD tag
Assay: UV-Vis absorbance ratio A280/A441 of the purified protein
Assay type: binding
Conditions: co-purified flavin; ratio given for the tagged PAMO fusions together

T1 sequence (Q47PU3 whole entry): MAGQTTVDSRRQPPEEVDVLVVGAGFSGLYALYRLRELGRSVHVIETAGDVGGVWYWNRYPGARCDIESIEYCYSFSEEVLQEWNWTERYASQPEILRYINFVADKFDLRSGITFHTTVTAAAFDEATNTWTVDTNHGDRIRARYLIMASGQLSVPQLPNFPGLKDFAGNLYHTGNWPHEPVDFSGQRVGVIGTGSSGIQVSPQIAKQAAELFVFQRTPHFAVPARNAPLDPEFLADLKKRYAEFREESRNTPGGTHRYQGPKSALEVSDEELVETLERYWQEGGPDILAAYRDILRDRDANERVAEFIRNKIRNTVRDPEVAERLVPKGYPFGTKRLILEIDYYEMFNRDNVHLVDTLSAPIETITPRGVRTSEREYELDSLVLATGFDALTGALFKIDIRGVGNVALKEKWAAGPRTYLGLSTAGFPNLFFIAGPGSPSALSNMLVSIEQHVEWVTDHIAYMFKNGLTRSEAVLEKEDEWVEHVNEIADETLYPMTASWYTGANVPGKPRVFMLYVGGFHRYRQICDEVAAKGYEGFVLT

## Cc1cc2nc3c(=O)[nH]c(=O)nc-3n(C[C@H](O)[C@H](O)[C@H](O)COP(=O)(O)OP(=O)(O)OC[C@H]3O[C@@H](n4cnc5c(N)ncnc54)[C@H](O)[C@@H]3O)c2cc1C [FAD]
  UV-Vis absorbance ratio A280/A441 of the purified protein: The tagged variants of PAMO were purified as yellow proteins
